Measured values: PubChem BioAssay AID1745844 (Carcinogenic Potency Database (CPDB), 2022)
Active and inactive are the calls of the source. The rule behind the calls is not given here.

Test system: rodent lifetime carcinogenesis bioassay, tumor incidence TD50
Experiment: chronic cancer bioassays in animals – CPDB, compiled studies (AID 1745844)

SMILES: C[C@@H]1C\C=C/C=C/C=C/C=C/[C@H](O[C@@H]2O[C@H](C)[C@@H](O)[C@H](N)[C@@H]2O)C[C@@H]2O[C@](O)(C[C@@H](O)C[C@@H]3O[C@@H]3/C=C\C(=O)O1)C[C@H](O)[C@H]2C(=O)O
- carcinogen call (rat, strain CFN, females, in feed, site: liver, lesion: malignant hepatoma, dosed 105 weeks, study length 105 weeks): negative (inactive)
- TD50 (rat, strain CFN, males, in feed, site: lung, lesion: lymphosarcoma, dosed 105 weeks, study length 105 weeks): 1970 mg/kg/day (inactive)
- carcinogen call (rat, strain CFN, males, in feed, site: thymus gland, lesion: thymoma, dosed 105 weeks, study length 105 weeks): negative (inactive)

SMILES: CN(Cc1cnc2nc(N)nc(N)c2n1)c1ccc(C(=O)N[C@@H](CCC(=O)O)C(=O)O)cc1
- carcinogen call (hamster, strain Syrian Golden, females, in feed, site: any site (literature study), lesion: several types, types named in the paper, dosed 101 weeks, study length 105 weeks): negative (inactive)
- TD50 (hamster, strain Syrian Golden, females, in feed, site: liver, lesion: hepatocellular adenoma, dosed 101 weeks, study length 105 weeks): 51.1 mg/kg/day (inactive)
- TD50 (hamster, strain Syrian Golden, females, in feed, site: liver, lesion: several types, types named in the paper, dosed 101 weeks, study length 105 weeks): 167 mg/kg/day
- carcinogen call (hamster, strain Syrian Golden, males, in feed, site: any site (literature study), lesion: several types, types named in the paper, dosed 108 weeks, study length 115 weeks): negative (inactive)
- carcinogen call (hamster, strain Syrian Golden, males, in feed, site: liver, lesion: one or several types, types not named, dosed 108 weeks, study length 115 weeks): negative (inactive)
- TD50 (mouse, strain Swiss, females, in feed, site: any site (literature study), lesion: several types, types named in the paper, dosed 120 weeks, study length 120 weeks): 48 mg/kg/day (inactive)
- TD50 (mouse, strain Swiss, females, in feed, site: liver, lesion: hepatocellular carcinoma, dosed 120 weeks, study length 120 weeks): 65.2 mg/kg/day (inactive)
- carcinogen call (mouse, strain Swiss, females, in feed, site: lung, lesion: several types, types named in the paper, dosed 120 weeks, study length 120 weeks): negative (inactive)
- carcinogen call (mouse, strain Swiss, males, in feed, site: any site (literature study), lesion: several types, types named in the paper, dosed 118 weeks, study length 120 weeks): negative (inactive)
- carcinogen call (mouse, strain Swiss, males, in feed, site: liver, lesion: hemangioma, dosed 118 weeks, study length 120 weeks): negative (inactive)
- carcinogen call (mouse, strain Swiss, males, in feed, site: lung, lesion: several types, types named in the paper, dosed 118 weeks, study length 120 weeks): negative (inactive)
- TD50 (rat, strain BR 46, males, i.v., site: any site (literature study), lesion: benign tumor, dosed 52 weeks, study length 104 weeks): 0.409 mg/kg/day (inactive)
- TD50 (rat, strain BR 46, males, i.v., site: any site (literature study), lesion: malignant tumor, dosed 52 weeks, study length 104 weeks): 2.96 mg/kg/day (inactive)
- TD50 (rat, strain BR 46, males, i.v., site: any site (literature study), lesion: several types, types named in the paper, dosed 52 weeks, study length 104 weeks): 0.33 mg/kg/day (inactive)
- carcinogen call (rat, strain Sprague-Dawley, females, i.p., site: any site (literature study), lesion: malignant tumor, dosed 104 weeks, study length 104 weeks): negative (inactive)
- carcinogen call (rat, strain Sprague-Dawley, males, i.p., site: any site (literature study), lesion: malignant tumor, dosed 104 weeks, study length 104 weeks): negative (inactive)

SMILES: Nc1ccc(NC(=O)c2ccc(N)cc2)cc1
- carcinogen call (mouse, strain BALB/cLacDp, females, in feed, site: liver, lesion: several types, types named in the paper, dosed 60 weeks, study length 132 weeks): negative (inactive)
- TD50 (mouse, strain BALB/cLacDp, females, in feed, site: lung, lesion: several types, types named in the paper, dosed 60 weeks, study length 132 weeks): 360 mg/kg/day (inactive)
- carcinogen call (mouse, strain BALB/cLacDp, males, in feed, site: liver, lesion: several types, types named in the paper, dosed 60 weeks, study length 132 weeks): negative (inactive)
- carcinogen call (mouse, strain BALB/cLacDp, males, in feed, site: lung, lesion: several types, types named in the paper, dosed 60 weeks, study length 132 weeks): negative (inactive)

SMILES: COC(=O)C(c1ccccc1)C1CCCCN1N=O (stereo not drawn)
- carcinogen call (mouse, strain (C57BL/6 x BALB/c)F1, females, in drinking water, site: any site (literature study), lesion: several types, types named in the paper, dosed 73 weeks, study length 106 weeks): negative (inactive)
- carcinogen call (mouse, strain (C57BL/6 x BALB/c)F1, females, in drinking water, site: liver, lesion: one or several types, types not named, dosed 73 weeks, study length 106 weeks): negative (inactive)
- carcinogen call (mouse, strain (C57BL/6 x BALB/c)F1, females, in drinking water, site: lung, lesion: one or several types, types not named, dosed 73 weeks, study length 106 weeks): negative (inactive)
- carcinogen call (mouse, strain (C57BL/6 x BALB/c)F1, males, in drinking water, site: any site (literature study), lesion: several types, types named in the paper, dosed 73 weeks, study length 106 weeks): negative (inactive)
- carcinogen call (mouse, strain (C57BL/6 x BALB/c)F1, males, in drinking water, site: lung, lesion: one or several types, types not named, dosed 73 weeks, study length 106 weeks): negative (inactive)
